According to patent US4731451A, “N-((2-oxo-3(2H)benzothiazolyl)methyl)-2-chloroacetanilides” (Monsanto Company, priority 1980, dated 1988):

How the values were obtained:
Format in all cases: in vivo
[1] = test system: Downy Brome; assay: Pre-emergent herbicidal activity (Table II); conditions: 2-3 weeks
Procedure: (§1) The pre-emergence tests are conducted as follows:
(§2) A good grade of top soil is placed in aluminum pans and compacted to a depth of three-eighths to one-half inch from the top of the pan. On the top of the soil is placed a predetermined number of seeds or vegetative propagules of various plant species. The soil required to level fill the pans after seeding or adding vegetative propagules is weighed into a pan. A known amount of the active ingredient applied in a solvent or as a wettable powder suspension and the soil are thoroughly mixed, and used as a cover layer for prepared pans. After treatment, the pans are moved into a greenhouse bench where they are watered from below as needed to give adequate moisture for germination and growth.
(§3) Approximately 2-3 weeks after seeding and treating, the plants are observed and the results recorded. The herbicidal rating is obtained by means of fixed scale based on the percent injury of each plant species. The ratings are defined as follows: […]
(§4) The plant species utilized in one set of tests, the data for which are shown in Table II, are identified by letter in accordance with the following legend: […]

[2] = test system: Lambsquarters; assay: Pre-emergent herbicidal activity (Table II); conditions: 2-3 weeks
Procedure: as §1, §2, §3, §4

[3] = test system: Smartweed; assay: Pre-emergent herbicidal activity (Table II); conditions: 2-3 weeks
Procedure: as §1, §2, §3, §4

[4] = test system: Canada Thistle; assay: Pre-emergent herbicidal activity (Table II); conditions: 2-3 weeks
Procedure: as §1, §2, §3, §4

[5] = test system: Johnsongrass; assay: Pre-emergent herbicidal activity (Table II); conditions: 2-3 weeks
Procedure: as §1, §2, §3, §4

[6] = test system: Barnyardgrass; assay: Pre-emergent herbicidal activity (Table II); conditions: 2-3 weeks
Procedure: as §1, §2, §3, §4

[7] = test system: Velvetleaf; assay: Pre-emergent herbicidal activity (Table II); conditions: 2-3 weeks
Procedure: as §1, §2, §3, §4

[8] = test system: Cocklebur; assay: Pre-emergent herbicidal activity (Table II); conditions: 2-3 weeks
Procedure: as §1, §2, §3, §4

[9] = test system: Quackgrass; assay: Pre-emergent herbicidal activity (Table II); conditions: 2-3 weeks
Procedure: as §1, §2, §3, §4

[10] = test system: Yellow Nutsedge; assay: Pre-emergent herbicidal activity (Table II); conditions: 2-3 weeks
Procedure: as §1, §2, §3, §4

[11] = test system: Morningglory; assay: Pre-emergent herbicidal activity (Table II); conditions: 2-3 weeks
Procedure: as §1, §2, §3, §4

[12] = test system: Downy Brome; assay: Pre-emergent herbicidal activity (Table III)
Procedure: as §1, §2, §3
(§5) The compounds were further tested by utilizing the above procedure on the following plant species: […]

[13] = test system: Lambsquarters; assay: Pre-emergent herbicidal activity (Table III)
Procedure: as §1, §2, §3, §5

[14] = test system: Smartweed; assay: Pre-emergent herbicidal activity (Table III)
Procedure: as §1, §2, §3, §5

[15] = test system: Panicum; assay: Pre-emergent herbicidal activity (Table III)
Procedure: as §1, §2, §3, §5

[16] = test system: Sugarbeet; assay: Pre-emergent herbicidal activity (Table III)
Procedure: as §1, §2, §3, §5

[17] = test system: Hemp Sesbania; assay: Pre-emergent herbicidal activity (Table III)
Procedure: as §1, §2, §3, §5

[18] = test system: Crabgrass; assay: Pre-emergent herbicidal activity (Table III)
Procedure: as §1, §2, §3, §5

[19] = test system: Wild Buckwheat; assay: Pre-emergent herbicidal activity (Table III)
Procedure: as §1, §2, §3, §5

[20] = test system: Barnyardgrass; assay: Pre-emergent herbicidal activity (Table III)
Procedure: as §1, §2, §3, §5

[21] = test system: Wheat; assay: Pre-emergent herbicidal activity (Table III)
Procedure: as §1, §2, §3, §5

[22] = test system: Velvetleaf; assay: Pre-emergent herbicidal activity (Table III)
Procedure: as §1, §2, §3, §5

[23] = test system: Cocklebur; assay: Pre-emergent herbicidal activity (Table III)
Procedure: as §1, §2, §3, §5

[24] = test system: Soybean; assay: Pre-emergent herbicidal activity (Table III)
Procedure: as §1, §2, §3, §5

[25] = test system: Sorghum; assay: Pre-emergent herbicidal activity (Table III)
Procedure: as §1, §2, §3, §5

[26] = test system: Rice; assay: Pre-emergent herbicidal activity (Table III)
Procedure: as §1, §2, §3, §5

[27] = test system: Morningglory; assay: Pre-emergent herbicidal activity (Table III)
Procedure: as §1, §2, §3, §5
Further: ranges in brackets are in %.

In the case of `CCc1cccc(CC)c1N(Cn1c(=O)sc2ccccc21)C(=O)CCl` [Example 3, N--[(2-oxo-3(2H)--benzothiazolyl)methyl]-2'-6'-diethyl-2-chloroacetanilide], the Herbicidal rating ([1]; 5.6 kg/ha) is reported as 1 (25-49), the Herbicidal rating ([1]; 11.2 kg/ha) is reported as 1 (25-49) and the Herbicidal rating ([2]; 5.6 kg/ha) is reported as 0 (0-24). For the same compound, the Herbicidal rating ([2]; 11.2 kg/ha) was 0 (0-24), the Herbicidal rating ([3]; 5.6 kg/ha) was 0 (0-24) and the Herbicidal rating ([3]; 11.2 kg/ha) was 0 (0-24). For the same compound, the Herbicidal rating ([4]; 5.6 kg/ha) was 0 (0-24), the Herbicidal rating ([4]; 11.2 kg/ha) was 0 (0-24) and the Herbicidal rating ([5]; 5.6 kg/ha) was 0 (0-24). The Herbicidal rating ([5]; 11.2 kg/ha) was 0 (0-24), the Herbicidal rating ([6]; 5.6 kg/ha) was 3 (75-100) and the Herbicidal rating ([6]; 11.2 kg/ha) was 3 (75-100). The Herbicidal rating ([7]; 5.6 kg/ha) was 0 (0-24), the Herbicidal rating ([7]; 11.2 kg/ha) was 0 (0-24) and the Herbicidal rating ([8]; 5.6 kg/ha) was 0 (0-24). For the same compound, the Herbicidal rating ([8]; 11.2 kg/ha) was 0 (0-24), the Herbicidal rating ([9]; 5.6 kg/ha) was 0 (0-24) and the Herbicidal rating ([9]; 11.2 kg/ha) was 1 (25-49). The Herbicidal rating ([10]; 5.6 kg/ha) was 1 (25-49), the Herbicidal rating ([10]; 11.2 kg/ha) was 1 (25-49) and the Herbicidal rating ([11]; 5.6 kg/ha) was 0 (0-24). For the same compound, the Herbicidal rating ([11]; 11.2 kg/ha) was 0 (0-24), the Herbicidal rating ([12]; 0.28 kg/ha) was 0 (0-24) and the Herbicidal rating ([12]; 1.12 kg/ha) was 1 (25-49). The Herbicidal rating ([12]; 5.6 kg/ha) was 2 (50-74), the Herbicidal rating ([13]; 0.28 kg/ha) was 0 (0-24) and the Herbicidal rating ([13]; 1.12 kg/ha) was 0 (0-24). For the same compound, the Herbicidal rating ([13]; 5.6 kg/ha) was 0 (0-24), the Herbicidal rating ([14]; 0.28 kg/ha) was 0 (0-24) and the Herbicidal rating ([14]; 1.12 kg/ha) was 1 (25-49). For the same compound, the Herbicidal rating ([14]; 5.6 kg/ha) was 0 (0-24), the Herbicidal rating ([15]; 0.28 kg/ha) was 0 (0-24) and the Herbicidal rating ([15]; 1.12 kg/ha) was 1 (25-49). For the same compound, the Herbicidal rating ([15]; 5.6 kg/ha) was 3 (75-100), the Herbicidal rating ([16]; 0.28 kg/ha) was 0 (0-24) and the Herbicidal rating ([16]; 1.12 kg/ha) was 0 (0-24). For the same compound, the Herbicidal rating ([16]; 5.6 kg/ha) was 0 (0-24), the Herbicidal rating ([17]; 0.28 kg/ha) was 0 (0-24) and the Herbicidal rating ([17]; 1.12 kg/ha) was 0 (0-24). For the same compound, the Herbicidal rating ([17]; 5.6 kg/ha) was 0 (0-24), the Herbicidal rating ([18]; 0.28 kg/ha) was 1 (25-49) and the Herbicidal rating ([18]; 1.12 kg/ha) was 2 (50-74). The Herbicidal rating ([18]; 5.6 kg/ha) was 3 (75-100), the Herbicidal rating ([19]; 0.28 kg/ha) was 0 (0-24) and the Herbicidal rating ([19]; 1.12 kg/ha) was 0 (0-24). For the same compound, the Herbicidal rating ([19]; 5.6 kg/ha) was 0 (0-24), the Herbicidal rating ([20]; 0.28 kg/ha) was 3 (75-100) and the Herbicidal rating ([20]; 1.12 kg/ha) was 3 (75-100). The Herbicidal rating ([20]; 5.6 kg/ha) was 3 (75-100), the Herbicidal rating ([21]; 0.28 kg/ha) was 0 (0-24) and the Herbicidal rating ([21]; 1.12 kg/ha) was 0 (0-24). For the same compound, the Herbicidal rating ([21]; 5.6 kg/ha) was 0 (0-24), the Herbicidal rating ([22]; 0.28 kg/ha) was 0 (0-24) and the Herbicidal rating ([22]; 1.12 kg/ha) was 0 (0-24). The Herbicidal rating ([22]; 5.6 kg/ha) was 0 (0-24), the Herbicidal rating ([23]; 0.28 kg/ha) was 0 (0-24) and the Herbicidal rating ([23]; 1.12 kg/ha) was 0 (0-24). The Herbicidal rating ([23]; 5.6 kg/ha) was 0 (0-24), the Herbicidal rating ([24]; 0.28 kg/ha) was 0 (0-24) and the Herbicidal rating ([24]; 1.12 kg/ha) was 0 (0-24). For the same compound, the Herbicidal rating ([24]; 5.6 kg/ha) was 0 (0-24), the Herbicidal rating ([25]; 0.28 kg/ha) was 0 (0-24) and the Herbicidal rating ([25]; 1.12 kg/ha) was 0 (0-24). The Herbicidal rating ([25]; 5.6 kg/ha) was 0 (0-24), the Herbicidal rating ([26]; 0.28 kg/ha) was 1 (25-49) and the Herbicidal rating ([26]; 1.12 kg/ha) was 0 (0-24). The Herbicidal rating ([26]; 5.6 kg/ha) was 0 (0-24), the Herbicidal rating ([27]; 0.28 kg/ha) was 0 (0-24) and the Herbicidal rating ([27]; 1.12 kg/ha) was 0 (0-24). The Herbicidal rating ([27]; 5.6 kg/ha) was 0 (0-24).
